From the NIST ThermoML archive (doi:10.1021/je700152c)

Assay: molar heat capacity at saturation pressure; xn = mol fraction of the nth substance listed

CCCCn1cc[n+](C)c1.Cc1ccc(S(=O)(=O)[O-])cc1 [1-butyl-3-methylimidazolium tosylate] + O
Conditions | molar heat capacity [J/K/mol]
142.92 K, Crystal, x1 = 0.3 | 83.64
143.53 K, Metastable crystal, x1 = 0.83 | 208.04
143.99 K, Crystal, x1 = 0.83 | 206.74
145.47 K, Metastable crystal, x1 = 0.83 | 210.65
145.65 K, Crystal, x1 = 0.3 | 84.8
145.93 K, Crystal, x1 = 0.83 | 214.56
147.41 K, Metastable crystal, x1 = 0.83 | 213
147.86 K, Crystal, x1 = 0.83 | 217.43
148.38 K, Crystal, x1 = 0.3 | 85.96
149.35 K, Metastable crystal, x1 = 0.83 | 215.34
149.8 K, Crystal, x1 = 0.83 | 211.69
151.11 K, Crystal, x1 = 0.3 | 87.13
151.28 K, Metastable crystal, x1 = 0.83 | 217.95
151.76 K, Crystal, x1 = 0.83 | 207.26
153.22 K, Metastable crystal, x1 = 0.83 | 220.3
153.74 K, Crystal, x1 = 0.83 | 206.22
153.84 K, Crystal, x1 = 0.3 | 88.29
155.15 K, Metastable crystal, x1 = 0.83 | 222.64
155.72 K, Crystal, x1 = 0.83 | 206.74
156.57 K, Crystal, x1 = 0.3 | 89.45
157.08 K, Metastable crystal, x1 = 0.83 | 224.99
157.71 K, Crystal, x1 = 0.83 | 207.78
159.01 K, Metastable crystal, x1 = 0.83 | 227.6
159.29 K, Crystal, x1 = 0.3 | 90.61
159.7 K, Crystal, x1 = 0.83 | 209.09
160.94 K, Metastable crystal, x1 = 0.83 | 229.94
161.69 K, Crystal, x1 = 0.83 | 210.65
161.79 K, Crystal, x1 = 0.37 | 108.28
162.02 K, Crystal, x1 = 0.3 | 91.78
162.86 K, Metastable crystal, x1 = 0.83 | 232.29
163.68 K, Crystal, x1 = 0.83 | 212.47
164.74 K, Crystal, x1 = 0.3 | 92.94
164.78 K, Metastable crystal, x1 = 0.83 | 234.63
164.91 K, Crystal, x1 = 0.37 | 109.92
165.67 K, Crystal, x1 = 0.83 | 214.3
166.7 K, Metastable crystal, x1 = 0.83 | 236.72
167.46 K, Crystal, x1 = 0.3 | 94.21
167.65 K, Crystal, x1 = 0.83 | 215.86
167.87 K, Crystal, x1 = 0.37 | 111.44
168.62 K, Metastable crystal, x1 = 0.83 | 239.07
169.64 K, Crystal, x1 = 0.83 | 217.69
170.18 K, Crystal, x1 = 0.3 | 95.37
170.53 K, Metastable crystal, x1 = 0.83 | 240.89
170.82 K, Crystal, x1 = 0.37 | 112.95
171.63 K, Crystal, x1 = 0.83 | 219.51
172.45 K, Metastable crystal, x1 = 0.83 | 243.24
172.9 K, Crystal, x1 = 0.3 | 96.64
173.61 K, Crystal, x1 = 0.83 | 221.34
173.77 K, Crystal, x1 = 0.37 | 114.59
174.36 K, Metastable crystal, x1 = 0.83 | 245.32
175.6 K, Crystal, x1 = 0.83 | 223.42
175.61 K, Crystal, x1 = 0.3 | 97.91
176.27 K, Metastable crystal, x1 = 0.83 | 247.15
176.72 K, Crystal, x1 = 0.37 | 116.23
177.58 K, Crystal, x1 = 0.83 | 224.99
178.18 K, Metastable crystal, x1 = 0.83 | 248.97
178.32 K, Crystal, x1 = 0.3 | 99.28
179.56 K, Crystal, x1 = 0.83 | 227.07
179.67 K, Crystal, x1 = 0.37 | 118.38
180.09 K, Metastable crystal, x1 = 0.83 | 250.8
181.02 K, Crystal, x1 = 0.3 | 101.4
181.54 K, Crystal, x1 = 0.83 | 228.9
181.99 K, Metastable crystal, x1 = 0.83 | 252.62
182.6 K, Crystal, x1 = 0.37 | 121.41
183.52 K, Crystal, x1 = 0.83 | 230.72
183.7 K, Crystal, x1 = 0.3 | 104.68
183.9 K, Metastable crystal, x1 = 0.83 | 254.19
185.5 K, Crystal, x1 = 0.37 | 126.71
185.5 K, Crystal, x1 = 0.83 | 232.81
185.8 K, Metastable crystal, x1 = 0.83 | 256.01
186.36 K, Crystal, x1 = 0.3 | 107.53
187.47 K, Crystal, x1 = 0.83 | 234.9
